According to patent publication US6825230B2, “Spiro and dispiro 1,2,4-trixolane antimalarials” (Medicines for Malaria Venture MMV, priority 2002, dated 2004):
Values after ≈ are worked out from the molar mass of the structure shown.

Assays:
P. berghei ANKA strain = assay: Divided 3x3 mg/kg and 3x1 mg/kg po doses in infected mice; assay type: in vivo, Plasmodium berghei; conditions: for Activity (%): percent reduction of parasitemia vs control on day 4
Procedure: Moro NMRI male mice (Fu Albino specific pathogen free) weighing 18±2 g were infected intravenously (i.v.) with 2×10^7 P. berghei ANKA strain-infected erythrocytes from donor mice on day 0 of the experiment. From donor mice with circa 30% parasitemia, heparinized blood was taken and diluted in physiological saline to 10^8 parasitized erythrocytes per ml. An aliquot (0.2 ml) of this suspension was injected i.v. into experimental and control groups of mice. […] Throughout the experiments, mice were kept in groups of three or five animals in Makrolon type II cages in an air-conditioned animal room at 22 to 23° C.
They were administered per os (p.o.) in a total volume of 0.01 ml per gram of mouse. The activity of the compound was determined by a variety of methods outlined in subsequent sections. Survival time was also recorded, and survival to day 30 post-infection was considered to be a cure.
The second experiment consists of administration of divided 3×3 mg/kg and 3×1 mg/kg po doses administered on days 1, 2, and 3 post-infection. On day 4 post-infection, blood smears of all animals were prepared and stained with Giemsa. […] Compounds were administered orally in the SSV vehicle.

[1] = tested on: Schistosoma mansoni 21-day-old schistosomules; assay: Effect on 21-day-old schistosomules in infected mice; assay type: in vivo; conditions: single 200 mg/kg per os, 21-day-old schistosomules; for % reduction of schistosomule growth at day 21 after per os application of 200 mg/kg, FWR (%): female worm reduction rate; for % reduction of schistosomule growth at day 21 after per os application of 200 mg/kg, TWR (%): total worm reduction rate
Procedure: Mice were infected with 100 Schistosoma mansoni cercariae on day 21 post-treatment. Each group was treated per os with trioxolanes at a single dose of 200 mg/kg. […] All groups were killed 4 weeks after treatment and the liver and intestine were removed and separated. The liver and intestine were compressed and alive male and female worms could be seen and counted. The effect of the compounds was evaluated by mean total and female worm burden.

[2] = tested on: ANKA strain of P. berghei; assay: Single dose STI in vivo screen in infected mice; set-up: species or system Plasmodium berghei; conditions: for Survival (days) 10 mg/kg SSV po: single 10 mg/kg po in SSV; for Activity (%) 10 mg/kg SSV po: single 10 mg/kg po in standard suspending vehicle (SSV) on day 1 post-infection
[3] = tested on: chloroquine-sensitive NF54 strain of P. falciparum; assay: In vitro antimalarial semiautomated microdilution assay ([3H]-hypoxanthine incorporation), NF54 strain; assay type: cell-based, Plasmodium falciparum; conditions: Plasmodium falciparum; chloroquine-sensitive NF54 strain, 72 h incubation; read-out: IC50 (ng/ml) NF54
Method in brief: (§1)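 Semiautomated microdilution against intraerythrocytic P. falciparum from asynchronous stock cultures, with growth tracked by [3H]-hypoxanthine incorporation. IC50 values were estimated by Logit regression analysis.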

[4] = tested on: chloroquine-resistant K1 strain of P. falciparum; assay: In vitro antimalarial semiautomated microdilution assay ([3H]-hypoxanthine incorporation), K1 strain; assay type: cell-based, Plasmodium falciparum; conditions: Plasmodium falciparum; chloroquine-resistant K1 strain, 72 h incubation; read-out: IC50 (ng/ml) K1
Method in brief: as §1

[5] = 3 × 1 mg/kg p.o. SSV on days 1, 2, 3 post-infection
[6] = 3 × 3 mg/kg p.o. SSV on days 1, 2, 3 post-infection
[7] = percent reduction in parasitemia on day 3

Row | SMILES | Survival (P. berghei ANKA strain; [5]) [days] | Activity (%) (P. berghei ANKA strain; [5]) | Survival (P. berghei ANKA strain; [6]) [days] | Activity (%) (P. berghei ANKA strain; [6]) | % reduction of schistosomule growth at day 21 after per os application of 200 mg/kg, FWR (%) [1] [%] | % reduction of schistosomule growth at day 21 after per os application of 200 mg/kg, TWR (%) [1] [%] | further results
1 | O=C(CC1CCC2(CC1)OOC1(O2)C2CC3CC(C2)CC1C3)N1CCC(O)CC1 (stereo not drawn) [compound 297] | 6.4 | 22 | 9.4 | 89 |  |  | 
2 | c1ccc(CON=C2CCC3(CC2)OOC2(O3)C3CC4CC(C3)CC2C4)cc1 (stereo not drawn) [OZ19] |  |  |  |  | 74 | 77 | 
3 | CS(=O)(=O)O.NCCOc1ccc(C2CCC3(CC2)OOC2(O3)C3CC4CC(C3)CC2C4)cc1 (stereo not drawn) [compound 323] | 14.4 | 66 | 14.4 | 99.95 |  |  | 
4 | CC1(C)CCC2(CC1)OOC1(O2)C2CC3CC(C2)CC1C3 (stereo not drawn) [OZ33] |  |  |  |  | 14 | 28 | 
5 | NC(=O)CNC(=O)CC1CCC2(CC1)OOC1(O2)C2CC3CC(C2)CC1C3 (stereo not drawn) [compound 306] | 11 | 85 | 7.6 | 99.75 |  |  | 
6 | Cc1ccc(S(=O)(=O)O)cc1.NCCNC(=O)CC1CCC2(CC1)OOC1(O2)C2CC3CC(C2)CC1C3 (stereo not drawn) [compound 305] | 9.6 | 87 | 12.2 | 99.91 |  |  | 
7 | Oc1ccc(C2CCC3(CC2)OOC2(O3)C3CC4CC(C3)CC2C4)cc1 (stereo not drawn) [compound 288] | 8.4 | 49 | 10.2 | 99 |  |  | 
8 | NS(=O)(=O)c1ccc(NCC2CCC3(CC2)OOC2(O3)C3CC4CC(C3)CC2C4)cc1 (stereo not drawn) [compound 298] | 11 | 93 | 16.4 | 99.99 |  |  | 
9 | CC(C)(C)OC(=O)N1CCC2(CC1)OOC1(O2)C2CC3CC(C2)CC1C3 (stereo not drawn) [OZ35] |  |  |  |  | 63 | 73 | 
10 | CC(C)(C)CC(=O)N1CCC2(CC1)OOC1(O2)C2CC3CC(C2)CC1C3 (stereo not drawn) [OZ111, Adamantane-2-spiro-3′-8′-(3′,3′-dimethylbutanoyl)-1′,2′,4′-trioxa-8′-azaspiro[4.5]decane] |  |  |  |  | 68 | 71 | Survival (days) 10 mg/kg po ([2]; single 10 mg/kg po in 3% ethanol and 7% Tween 80, untreated 6-7 days): 7.7 days; Activity (%) 10 mg/kg po ([2]; single 10 mg/kg po in 3% ethanol and 7% Tween 80 on day 1 post-infection, percent reduction in parasitemia on day 3): 98%; Survival (days) 10 mg/kg SSV po ([2]; untreated 6-7 days): 6.3 days; Activity (%) 10 mg/kg SSV po [2, 7]: 79%; Survival (days) 10 mg/kg sc ([2]; single 10 mg/kg sc in 3% ethanol and 7% Tween 80, untreated 6-7 days): 8.3 days; Activity (%) 10 mg/kg sc ([2]; single 10 mg/kg sc in 3% ethanol and 7% Tween 80 on day 1 post-infection, percent reduction in parasitemia on day 3): 99.94%
11 | CS(=O)(=O)O.O=C(O)CNCC1CCC2(CC1)OOC1(O2)C2CC3CC(C2)CC1C3 (stereo not drawn) [compound 309] | 9.4 | 66 | 9.2 | 99 |  |  | 
12 | O=C(NC[C@H]1CC[C@]2(CC1)OO[C@]1(O2)C2CC3CC(C2)CC1C3)N1CCNCC1 [OZ329] |  |  |  |  |  |  | IC50 [3]: 0.68 ng/mL (≈ 1.68 nM); Cured infected mice at the 3×3 mg/kg dose (P. berghei ANKA strain; 3 mg/kg po (SSV) on days 1, 2, 3 post-infection): 2/5; IC50 [4]: 0.43 ng/mL (≈ 1.06 nM); Survival (days) 3 mg/kg SSV po ([2]; single 3 mg/kg po in SSV): 9.2 days; Activity (%) 3 mg/kg SSV po ([2]; single 3 mg/kg po in SSV, percent reduction in parasitemia on day 3): 99.50%; Survival (days) 10 mg/kg SSV po ([2]; untreated 6-7 days): 11.2 days; Activity (%) 10 mg/kg SSV po [2, 7]: 99.97%
13 | CC(C)(C)ON=C1CCC2(CC1)OOC1(O2)C2CC3CC(C2)CC1C3 (stereo not drawn) [OZ28] |  |  |  |  | 87 | 81 | 
